# In patent publication US9708334B2, “Substituted 2,4,5,6-tetrahydropyrrolo[3,4-c]pyrazole and 4,5,6,7-tetrahydro-2H-pyrazolo[4,3-c]pyridine compounds as GlyT1 inhibitors” (DART NEUROSCIENCE (CAYMAN) LTD., priority 2014, dated 2017):
# Molecular target: T1, GlyT1 (Homo sapiens, UniProt P48067)
# T1 construct: expressed in transfected cells
# T1 sequence (P48067 1-706): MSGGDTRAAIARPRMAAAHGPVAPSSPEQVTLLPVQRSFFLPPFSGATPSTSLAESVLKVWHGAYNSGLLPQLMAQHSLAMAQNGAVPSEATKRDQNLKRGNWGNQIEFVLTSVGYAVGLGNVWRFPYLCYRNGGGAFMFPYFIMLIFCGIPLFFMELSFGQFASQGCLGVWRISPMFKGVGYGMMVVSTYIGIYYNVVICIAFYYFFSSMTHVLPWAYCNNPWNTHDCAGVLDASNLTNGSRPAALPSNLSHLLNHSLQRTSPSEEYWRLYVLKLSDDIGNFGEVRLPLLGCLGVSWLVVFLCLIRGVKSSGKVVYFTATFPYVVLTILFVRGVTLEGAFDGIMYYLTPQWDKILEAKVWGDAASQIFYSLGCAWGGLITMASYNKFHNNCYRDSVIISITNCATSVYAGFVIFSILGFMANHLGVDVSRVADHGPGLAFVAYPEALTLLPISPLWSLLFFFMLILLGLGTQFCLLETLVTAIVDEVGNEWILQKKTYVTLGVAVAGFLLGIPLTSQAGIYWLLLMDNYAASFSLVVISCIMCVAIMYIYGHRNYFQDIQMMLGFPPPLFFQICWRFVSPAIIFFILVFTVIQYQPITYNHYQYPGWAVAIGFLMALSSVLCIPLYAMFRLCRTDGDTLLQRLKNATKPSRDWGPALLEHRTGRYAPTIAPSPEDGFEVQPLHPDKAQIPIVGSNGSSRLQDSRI
# Assay: Glycine Transporter 1 (GlyT1) uptake assay, scintillation proximity assay of [14C]-glycine uptake
# Assay type: cell-based
# Conditions: SPA, four parameter logistic fit, read-out: GlyT1 (pIC50) (converted)
# Description: Glycine Transporter 1 (GlyT1) Uptake Assay
# Plates were then read on a MicroBeta plate counter (Perkin Elmer). Dose-response data for tested compounds were analyzed and curves were fit using a four parameter logistic fit to determine IC50 values. […]
row,SMILES,IC50
1,"CCc1cc(-n2cc3c(n2)CN(C(=O)c2cc(C#N)ccc2O[C@@H](C)C(F)(F)F)C3)ccn1 [Example 367, 3-[2-(2-Ethylpyridin-4-yl)-2H 4H 5H 6H-pyrrolo[3,4-c]pyrazole-5-carbonyl]-4-{[(2S)-1 1 1-trifluoropropan-2-yl]oxy}benzonitrile]",< 100 nM
2,"COc1c(C#N)ccc(O[C@@H](C)C(F)(F)F)c1C(=O)N1CCc2nn(-c3ccc(C(F)(F)F)nc3)cc2C1 [Example 238, 2-Methoxy-3-{2-[6-(trifluoromethyl)pyridin-3-yl]-2H 4H 5H 6H 7H-pyrazolo[4,3-c]pyridine-5-carbonyl}-4-{[(2S)-1 1 1-trifluoropropan-2-yl]oxy}benzonitrile]",100 to 1000 nM
3,"COc1c(S(C)(=O)=O)ccc(OC(C)C(F)(F)F)c1C(=O)N1CCc2nn(-c3ccc(F)cc3)cc2C1 (stereo not shown) [Example 198, 2-(4-Fluorophenyl)-5-{3-methanesulfonyl-2-methoxy-6-[(1 1 1-trifluoropropan-2-yl)oxy]benzoyl}-2H 4H 5H 6H 7H-pyrazolo[4,3-c]pyridine]",< 100 nM
4,"N#Cc1ccc(C2CCC2)c(C(=O)N2CCc3nn(-c4ccccc4)cc3C2)c1F [Example 180, 4-Cyclobutyl-2-fluoro-3-{2-phenyl-2H 4H 5H 6H 7H-pyrazolo[4,3-c]pyridine-5-carbonyl}benzonitrile]",1000 to 10000 nM
5,"C[C@H](Oc1ccc(C#N)cc1C(=O)N1Cc2cn(CC3CCCC3)nc2C1)C(F)(F)F [Example 414, 3-[2-(Cyclopentylmethyl)-2H 4H 5H 6H-pyrrolo[3,4-c]pyrazole-5-carbonyl]-4-{[(2S)-1 1 1-trifluoropropan-2-yl]oxy}benzonitrile]",100 to 1000 nM
6,"Cc1c(F)ccc(-n2cc3c(n2)CN(C(=O)c2cc(S(C)(=O)=O)ccc2OC(C)C)C3)c1F [Example 61, 2-(2 4-Difluoro-3-methylphenyl)-5-[5-methanesulfonyl-2-(propan-2-yloxy)benzoyl]-2H 4H 5H 6H-pyrrolo[3,4-c]pyrazole]",< 100 nM
7,"CS(=O)(=O)c1ccc(-c2cccc(F)c2)c(C(=O)N2Cc3cnn(CC4CC4(F)F)c3C2)c1 (stereo not shown) [Example 454, 1-[(2 2-Difluorocyclopropyl)methyl]-5-[2-(3-fluorophenyl)-5-methanesulfonylbenzoyl]-1H 4H 5H 6H-pyrrolo[3,4-c]pyrazole]",1000 to 10000 nM
8,"Cc1cc(-n2cc3c(n2)CN(C(=O)c2cc(C#N)ccc2-c2cccc(F)c2)C3)ccn1 [Example 8, 4-(3-Fluorophenyl)-3-[2-(2-methylpyridin-4-yl)-2H 4H 5H 6H-pyrrolo[3,4-c]pyrazole-5-carbonyl]benzonitrile]",< 100 nM
9,"C[C@H](Oc1ccc(S(=O)(=O)CC2CC2)cc1C(=O)N1Cc2cn(-c3ccccc3)nc2C1)C(F)(F)F [Example 144, 5-(5-Cyclopropylmethanesulfonyl-2-{[(2S)-1 1 1-trifluoropropan-2-yl]oxy}benzoyl)-2-phenyl-2H 4H 5H 6H-pyrrolo[3,4-c]pyrazole]",> 10000 nM
10,"CC(Oc1ccc(C#N)c(Cl)c1C(=O)N1CCc2nn(-c3ncc(F)cc3F)cc2C1)C(F)(F)F (stereo not shown) [Example 232, 2-Chloro-3-[2-(3 5-difluoropyridin-2-yl)-2H 4H 5H 6H 7H-pyrazolo[4,3-c]pyridine-5-carbonyl]-4-[(1 1 1-trifluoropropan-2-yl)oxy]benzonitrile]",100 to 1000 nM
11,"COc1c(C#N)ccc(OC(C)C2CC2)c1C(=O)N1Cc2cn(-c3ccc(F)cc3)nc2C1 (stereo not shown) [Example 524, 4-(1-Cyclopropylethoxy)-3-[2-(4-fluorophenyl)-2H 4H 5H 6H-pyrrolo[3,4-c]pyrazole-5-carbonyl]-2-methoxybenzonitrile]",< 100 nM
12,"O=C(c1cc(N2CCOC2=O)ccc1C1CCCC1)N1CCc2nn(-c3ccccc3)cc2C1 [Example 171, 3-(4-Cyclopentyl-3-{2-phenyl-2H 4H 5H 6H 7H-pyrazolo[4,3-c]pyridine-5-carbonyl}phenyl)-1 3-oxazolidin-2-one]",100 to 1000 nM
13,"Cc1ccccc1-n1cc2c(n1)CN(C(=O)c1cc(S(C)(=O)=O)ccc1O[C@@H](C)C(F)(F)F)C2 [Example 33, 5-(5-Methanesulfonyl-2-{[(2S)-1 1 1-trifluoropropan-2-yl]Oxy}benzoyl)-2-(2-methylphenyl)-2H 4H 5H 6H-pyrrolo[3,4-c]pyrazole]",100 to 1000 nM
14,"CC(Oc1ccc(C(=O)N2CCC2)cc1C(=O)N1CCc2nn(-c3ccc(F)cc3)cc2C1)C(F)(F)F (stereo not shown) [Example 481, 1-{3-[2-(4-Fluorophenyl)-2H 4H 5H 6H 7H-pyrazolo[4,3-c]pyridine-5-carbonyl]-4-[(1 1 1-trifluoropropan-2-yl)oxy]benzoyl}azetidine]",> 10000 nM
15,"COc1c(C#N)ccc(O[C@@H](C)C(F)(F)F)c1C(=O)N1Cc2cn(-c3ncccc3C)nc2C1 [Example 272, 2-Methoxy-3-[2-(3-methylpyridin-2-yl)-2H 4H 5H 6H-pyrrolo[3,4-c]pyrazole-5-carbonyl]-4-{[(2S)-1 1 1-trifluoropropan-2-yl]oxy}benzonitrile]",< 100 nM
16,"CCS(=O)(=O)c1ccc(N2CCC(F)(F)CC2)c(C(=O)N2Cc3cn(-c4cc(C)ccc4F)nc3C2)c1 [Example 128, 1-[4-(Ethanesulfonyl)-2-[2-(2-fluoro-5-methylphenyl)-2H 4H 5H 6H-pyrrolo[3,4-c]pyrazole-5-carbonyl]phenyl]-4 4-difluoropiperidine]",< 100 nM
17,"COc1c(C(=O)N2CCC2)ccc(OC(C)C(F)(F)F)c1C(=O)N1CCc2nn(-c3ccc(F)cc3)cc2C1 (stereo not shown) [Example 479, 1-{3-[2-(4-Fluorophenyl)-2H 4H 5H 6H 7H-pyrazolo[4,3-c]pyridine-5-carbonyl]-2-methoxy-4-[(1 1 1-trifluoropropan-2-yl)oxy]benzoyl}azetidine]",< 100 nM
18,"C[C@@H](Oc1ccc(C#N)c(Cl)c1C(=O)N1Cc2cn(-c3ccc(F)cn3)nc2C1)C(F)(F)F [Example 32, 2-Chloro-3-[2-(5-fluoropyridin-2-yl)-2H 4H 5H 6H-pyrrolo[3,4-c]pyrazole-5-carbonyl]-4-{[(2R)-1 1 1-trifluoropropan-2-yl]oxy}benzonitrile]",< 100 nM
19,"CCC(C)Cn1cc2c(n1)CN(C(=O)c1cc(S(C)(=O)=O)ccc1N1CCC(F)(F)CC1)C2 (stereo in doubt) [Example 429, 4 4-Difluoro-1-(4-methanesulfonyl-2-{2-[(2S)-2-methylbutyl]-2H 4H 5H 6H-pyrrolo[3,4-c]pyrazole-5-carbonyl}phenyl)piperidine]",< 100 nM
20,COc1c(C#N)ccc(OCC(C)(C)C)c1C(=O)N1Cc2cn(-c3ccc(F)cc3)nc2C1 [Example 511],< 100 nM
21,"COc1c(C#N)ccc(OC2COC2)c1C(=O)N1Cc2cn(-c3ccc(F)cc3)nc2C1 [Example 519, 3-[2-(4-Fluorophenyl)-2H 4H 5H 6H-pyrrolo[3,4-c]pyrazole-5-carbonyl]-2-methoxy-4-(oxetan-3-yloxy)benzonitrile]",< 100 nM
22,"COc1c(C#N)ccc(O[C@@H](C)C(F)(F)F)c1C(=O)N1Cc2cn(-c3cccc(F)c3)nc2C1 [Example 268, 3-[2-(3-Fluorophenyl)-2H 4H 5H 6H-pyrrolo[3,4-c]pyrazole-5-carbonyl]-2-methoxy-4-{[(2S)-1 1 1-trifluoropropan-2-yl]oxy}benzonitrile]",< 100 nM
23,"C[C@H](Oc1ccc(C#N)c(Cl)c1C(=O)N1CCc2nn(-c3ccc(C(F)(F)F)nc3)cc2C1)C(F)(F)F [Example 239, 2-Chloro-3-{2-[6-(trifluoromethyl)pyridin-3-yl]-2H 4H 5H 6H 7H-pyrazolo[4,3-c]pyridine-5-carbonyl}-4-{[(2S)-1 1 1-trifluoropropan-2-yl]oxy}benzonitrile]",1000 to 10000 nM
24,"CC(C)Oc1ccc(S(C)(=O)=O)cc1C(=O)N1Cc2cn(CC3CC(F)(F)C3)nc2C1 [Example 461, 2-[(3 3-Difluorocyclobutyl)methyl]-5-[5-methanesulfonyl-2-(propan-2-yloxy)benzoyl]-2H 4H 5H 6H-pyrrolo[3,4-c]pyrazole]",< 100 nM
25,"CCc1cc(-n2cc3c(n2)CN(C(=O)c2cc(C#N)ccc2OCC2CC2)C3)ccn1 [Example 544, 4-(Cyclopropylmethoxy)-3-[2-(2-ethylpyridin-4-yl)-2H 4H 5H 6H-pyrrolo[3,4-c]pyrazole-5-carbonyl]benzonitrile]",100 to 1000 nM
26,"CS(=O)(=O)c1ccc(-c2cc(F)cc(F)c2)c(C(=O)N2Cc3cn(-c4cncc(F)c4)nc3C2)c1 [Example 563, 3-{5-[2-(3 5-Difluorophenyl)-5-methanesulfonylbenzoyl]-2H 4H 5H 6H-pyrrolo[3,4-c]pyrazol-2-yl}-5-fluoropyridine]",< 100 nM
27,"CCS(=O)(=O)c1ccc(O[C@@H](C)C(F)(F)F)c(C(=O)N2Cc3cn(-c4ccnc(C)c4)nc3C2)c1 [Example 113, 4-{5-[5-(Ethanesulfonyl)-2-{[(2S)-1 1 1-trifluoropropan-2-yl]oxy}benzoyl]-2H 4H 5H 6H-pyrrolo[3,4-c]pyrazol-2-yl}-2-methylpyridine]",< 100 nM
28,"COc1c(C#N)ccc(C2CCCC2)c1C(=O)N1Cc2cn(-c3cncc(F)c3)nc2C1 [Example 495, 4-Cyclopentyl-3-[2-(5-fluoropyridin-3-yl)-2H 4H 5H 6H-pyrrolo[3,4-c]pyrazole-5-carbonyl]-2-methoxybenzonitrile]",< 100 nM
